Key:
[1] = in vivo; cited from earlier work
[2] = 750 courses of oral therapy; cited from earlier work
[3] = Solubility of THC in ethanol:water with or without permeation enhancer (HPLC); conditions: ethanol:water 70:30 v/v, aqueous with cosolvent or surfactant or cyclodextrin, thermodynamic from solid

SMILES: CCCCCc1cc(O)c2c(c1)OC(C)(C)[C@@H]1CCC(C)=C[C@@H]21 [THC, tetrahydrocannabinol]
- Plasma levels for therapeutic effects [1]: ~10 nanograms/ml
- poor or only partial response to THC, share of courses [2]: approximately 65%
- solubility at 24 h [3]: 20.2 mg/mL

From patent publication US6503532B1, “Pharmaceutical composition containing tetrahydrocannabinol and a transdermal/transcutaneous delivery method thereof” (Murty Pharmaceuticals, Inc., priority 2001, dated 2003)
